In data set [1] the test system is Rattus norvegicus.
The subject of data set [2] is Rattus norvegicus. This is another data set of the same source.
[3] abbreviates: subchronic, oral, gavage, Sprague-Dawley.
Setting [4] is: short-term, duration: 28 days, oral, gavage, F, Sprague-Dawley, Clinical Observation: Locomotor activity decrease, Crouching position + Functional Observational Battery: Reactivity decrease + Body Weight ….
Where [5] appears, read: short-term, duration: 28 days, oral, gavage, M, Sprague-Dawley, Clinical Observation: Locomotor activity decrease, Crouching position + Functional Observational Battery: Reactivity decrease + Body Weight ….
Setting [6] is: short-term; duration: 28 days; oral; gavage; M; Sprague-Dawley; Deaths/5) + Body Weight Changes: decrease + Food Consumption: decrease + Urinalysis: Urine volume decrease, Uosm increase + Hematology: MCH ….
Where [7] appears, read: short-term, duration: 28 days, oral, gavage, F, Sprague-Dawley, Clinical Observation: Soft stool + Body Weight Changes: decrease, Gain decrease + Urinalysis: Protein increasep H decrease + Blood Chemistry….
[8] abbreviates: short-term, duration: 28 days, oral, gavage, M, Sprague-Dawley, Clinical Observation: Soft stool + Body Weight Changes: decrease, Gain decrease + Urinalysis: Protein increasep H decrease + Blood Chemistry….
The mark [9] stands for this setting: reproduction developmental, duration: 10 days, oral, gavage, F, Sprague-Dawley.
[10] abbreviates: subchronic, duration: 13 weeks, oral, diet.
The mark [11] stands for this setting: reproduction developmental, inhalation, Wistar.

As a reminder, the LD50 is the dose expected to kill half of the subjects tested. The low end stands for greater toxicity, the high end for lower toxicity. The term LOAEL denotes the lowest tested level that showed an adverse finding. By NOAEL is commonly meant the highest dose or exposure tested at which no adverse effect was seen.

Molecules are shown by their SMILES. A value given as a limit tells only on which side of the number the result lay.

With `CC(C)(c1cc(Br)c(OCC(Br)CBr)c(Br)c1)c1cc(Br)c(OCC(Br)CBr)c(Br)c1` (centres undefined) [Tetrabromobisphenol A-bis(2,3-dibromopropyl ether)], the NOEL in data set [1] (setting [3]) was found to be 1000 mg/kg-day. With `CC(C)(C)c1cc(CCC(=O)O)cc(C(C)(C)C)c1O` [Fenozan], the NOEL in data set [1] (subchronic, duration: 90 days, oral, gavage, M/F, Blood Chemistry: GPT increase, TP increase, GLB increase, T-CHO increase + Organ Weight: Liver increase + Histopathology: Liver - …) amounted to 3 mg/kg-day. As to `Cc1ccc(Cl)c(Cl)c1` [3,4-Dichlorotoluene], in data set [1] (subchronic, oral, gavage, M, Sprague-Dawley, Deaths + Clinical Observation: Death-1/6 on treatment day 15R + Body Weight Changes: decrease(tendency)Body weight gain decrease(tendency…), the NOEL is 100 mg/kg-day. Turning to `O=C(O)CCC(=O)O` [Butanedioic acid], the LD50 is 2260 mg/kg in data set [2] (acute, oral, gavage) and above 8000 mg/kg in data set [2] (acute, oral, gavage, Fischer 344). In data set [2] (developmental, injection, intramuscular), this molecule came in with an LOAEL of 500 mg/kg-day. For the molecule `CCOC(=O)CC#N` [Ethyl cyanoacetate], the NOAEL in data set [1] (subchronic, duration: 90 days, oral, gavage, M/F, Wistar, Urinalysis: Volume increase + Hematology: WBC decrease, RBC decrease, HGB decrease, HTC decrease + Histopathology: Liver: Inflammation, …) is 100 mg/kg-day. With `C=CC(=O)N(C)C` [N,N-Dimethylacrylamide], the NOEL in data set [1] (short-term, duration: 28 days, oral, gavage, M/F, Sprague-Dawley, Functional Observational Battery: Urination increase, Rearing decrease, Unkempt fur Motor activity decrease + Body Weight Changes: decrease…) was found to be 20 mg/kg-day.

Regarding `O=C1CCCO1` [gamma-Butyrolactone], in data set [1] (subchronic, duration: 13 weeks, oral, gavage, M/F, Fischer 344, Clinical Observation: Slight inactivity Recumbent + Body Weight Changes: decrease + Absolute Organ Weight: Thymus decrease + Relative Organ …), the NOEL was 112 mg/kg-day.

Take `C[C@@H](O)[C@H]1C(=O)N2C(C(=O)O)=C([C@H]3CCCO3)S[C@H]12` [Fropenem]: in data set [1] (chronic, duration: 182 days, oral, gavage, M/F, CD, Clinical Observation: Loose stool Soiled perineal region + Body Weight Changes: decrease + Food Consumption: decrease + Water Consumption: …), the no-observed-adverse-effect level (NOAEL) came to 100 mg/kg-day.

In the case of `Clc1cccc2ccccc12` [1-Chloronaphthalene], in data set [1] (setting [4]), the LOEL is 100 mg/kg-day and the NOEL was 30 mg/kg-day. In data set [1] (setting [5]), the LOEL was 100 mg/kg-day and the NOEL came out at 30 mg/kg-day. On to `CC(=O)Nc1ccccc1` [N-Acetylaminobenzene], for which the NOAEL in data set [1] (subchronic, duration: 30 days, oral, gavage, M, Sprague-Dawley, Clinical Observation: Decreased locomotor activity Reddish Tear SalivationCyanosis + Hematology: HGB decrease, HCT decrease, MCHC decrease…) was below 22 mg/kg-day. As for `CCCCCCCCCCCCC(CO)CCCCCCCCCC` (centres undefined) [1-Tetradecanol, 2-decyl-], the NOAEL in data set [1] (subchronic, oral, gavage, M, Sprague-Dawley, Urinalysis: Occult blood + Hematology: PT increase, APTT increase + Blood Chemistry: LDH increase) was determined as 62.5 mg/kg-day.

In turn, `Cc1cccc(C#N)c1` [3-Methylbenzonitrile] showed an LD50 in data set [2] (acute, oral, Sprague-Dawley) of 3000 mg/kg. `O[B-](c1ccccc1)(c1ccccc1)c1ccccc1.[Na+]` [Sodium hydroxytriphenylborate] yielded an LD50 in data set [2] (acute, oral, gavage, Sprague-Dawley) of 1240 mg/kg. For the molecule `O=C(Nc1ccccc1SSc1ccccc1NC(=O)c1ccccc1)c1ccccc1` [2,2'-Dibenzoylaminodiphenyl disulfide], the NOEL in data set [1] (subchronic, oral, gavage, M, Sprague-Dawley, Clinical Observation: Salivation + Blood Chemistry: ALT increase, Glu increase + Absolute Organ Weight: Liver increase + Relative Organ …) worked out at 300 mg/kg-day. As to `CCc1ncnc(Cl)c1Cl` [4,5-DICHLORO-6-ETHYLPYRIMIDINE], the NOEL in data set [1] (short-term, duration: 28 days, oral, gavage, M/F, Deaths + Clinical Observation: Salivation Locomotor activity decrease, Ptosis + Body Weight Changes: Weight gain decrease + Food Consumption…) turned out to be 5 mg/kg-day.

For `O=S(=O)(c1ccc(Cl)cc1)c1ccc(Cl)cc1` [4,4'-Dichlorodiphenyl sulfone], in data set [1] (chronic, duration: 14 weeks, oral, diet, M/F, Fischer 344, Body Weight Changes: decrease + Food Consumption: decrease + Hematology: Hgb decrease, Plt increase + Blood Chemistry: TP increase, BUN …), the NOEL is below 2.34 mg/kg-day. Moreover, in data set [1] (setting [6]), the no observed adverse effect level (NOAEL) was below 50 mg/kg-day and the NOEL is below 50 mg/kg-day. As to `Cc1ccc(C)c(OCCCC(C)(C)C(=O)O)c1` [Gemfibrozil], the NOAEL is 30 mg/kg-day in data set [1] (chronic, duration: 91 days, oral, diet, F, CD, Body Weight Changes: Body weight gain decrease + Hematology: RBC decrease, HCT decrease, HGB decrease, Plt increase, RET increase + Blood …) and below 30 mg/kg-day in data set [1] (chronic, duration: 91 days, oral, diet, M, CD, Body Weight Changes: Body weight gain decrease + Hematology: RBC decrease, HCT decrease, HGB decrease, Plt increase, RET increase + Blood …).

For the molecule `C=Cc1ccc(S(=O)(=O)[O-])cc1.[Na+]` [Sodium 4-vinylbenzenesulfonate], in data set [1] (setting [7]), the LOEL is 1000 mg/kg-day and the NOEL worked out at 300 mg/kg-day. In addition, in data set [1] (setting [8]), the LOEL amounted to 300 mg/kg-day and the NOEL was 100 mg/kg-day. The molecule `Nc1ccc([N+](=O)[O-])cc1Cl` [2-Chloro-4-nitroaniline] yielded an NOEL in data set [1] (setting [3]) of 100 mg/kg-day. As to `CC(C)CCCCC(=O)O` [Isooctanoic acid], the NOAEL in data set [2] (developmental, oral, gavage, Sprague-Dawley) was found to be 800 mg/kg-day; in data set [2] (reproduction developmental, oral, diet, F, Sprague-Dawley), 7500 ppm; in data set [2] (reproduction developmental, oral, diet, Sprague-Dawley, generation: F1) it was 7500 ppm; in data set [2] (reproduction developmental, oral, gavage, F, Sprague-Dawley), 400 mg/kg-day. Take `Cc1cc(S(=O)(=O)[O-])c(N=Nc2c([O-])c(C(=O)O)cc3ccccc23)cc1Cl.[Ba+2]`: in data set [2] (acute, oral, gavage), the 50% lethal dose (LD50) was at least 5000 mg/kg. Regarding `CC1COCc2cc3c(cc21)C(C)(C)C(C)C3(C)C` (centres undefined), the lowest observed adverse effect level (LOAEL) stood at 150 mg/kg-day in data set [2] (setting [9]) and 300 mg/kg-day in data set [2] (setting [10]). Further, the NOAEL stood at 50 mg/kg-day in data set [2] (setting [9]); 150 mg/kg-day in data set [2] (reproduction developmental, duration: 10 days, oral, gavage, Sprague-Dawley, generation: F1); 20 mg/kg-day in data set [2] (reproduction developmental, oral, gavage); 150 mg/kg-day in data set [2] (setting [10]). Molecule `CC=CC` [2-Butene] yielded an LC50 in data set [2] (acute, inhalation, Wistar) above 22900 mg/m3. In data set [2] (setting [11]), this molecule had an LOAEL of 11500 mg/m3 and an NOAEL of 5740 mg/m3.

The values above are taken from EPA's ToxValDB 9.5.
